From PMC11494886, “Discovery and design of molecular glue enhancers of CDK12–DDB1 interactions for targeted degradation of cyclin K” (RSC Chemical Biology, 2024)

Key:
Cdk12/CycK and DDB1ΔB [1] = molecular target: T1, Cdk12/CycK and DDB1ΔB (Homo sapiens, UniProt Q16531+Q9NYV4, DEL396-705); experiment: Dynamic light scattering of SEC peak fractions; assay type: binding; conditions: SEC peak middle fractions, vs negative controls
T1 construct: the Cdk12 (714–1063)/CycK (1–267) complex and the DDB1ΔB protein; made in house; host or cells: Sf9 insect cells (MultiBacTurbo)
Procedure: To evaluate particle size distribution in liquid solution, dynamic light scattering was employed. Specifically, 10 μL fractions from the central region of peaks obtained in analytical size exclusion chromatography runs were analyzed. This analysis was performed using a DynaPro NanoStar 672 (Wyatt Technology) in a disposable DLS MicroCuvette (Wyatt Technology), while maintaining a constant temperature of 25 °C. Each measurement was conducted with an acquisition time of 3 s, and each data point depicted in the Results section represents the average of 20 individual DLS measurements. The hydrodynamic radius of the protein samples was determined using the processing and analysis software DYNAMICS.

cyclin K = experiment: Immunoblot of cyclin K levels in MDA-MB-231 cells; assay type: cell-based, human; conditions: SR-4835 500 nM, SR-4784 1-2 μM 2 hours, SR-4784-PAP 2 μM 2 hours
Procedure: THZ531 was used as a negative control as it is known to make a covalent bond with Cys1039 in a C-terminal extension of the kinase domain, thereby preventing this helix-loop-helix (HLH)-like fold from binding in a cleft between the DDB1 BPA and BPC domains (Fig. 1B, right panels). […] An immunofluorescence-based assay developed for visualizing loss of nuclear cyclin K also confirmed the above observations (Fig. 1H and Fig. S1, ESI ^†).
Total cell lysates were prepared using RIPA lysis buffer (Millipore Sigma) supplemented with protease and phosphatase inhibitors (Roche). Protein concentrations were estimated using the BCA protein assay kit (Pierce, Thermo Fisher Scientific). Equal amounts of proteins were separated using NuPAGE 4–12% Bis-Tris gels (Thermo Fisher Scientific). For CLICK chemistry pulldown experiments, proteins in the eluates were resolved using 3–8% Tris–acetate gels (Thermo Fisher Scientific). Proteins were transferred to nitrocellulose membranes using NuPAGE transfer buffer (Thermo Fisher Scientific). Membranes were blocked in LI-COR blocking buffer for 1 hour at room temperature and then probed with primary antibodies diluted in the same blocking buffer overnight at 4 °C. To detect the primary antibodies, membranes were incubated with IR-680 or IR-800 conjugated secondary antibodies (LI-COR) diluted in LI-COR blocking buffer at room temperature for 1 hour. Washes with 0.01% Tween-phosphate buffer were performed after primary and secondary antibody incubation steps. Signals from the membrane were recorded by scanning on a LI-COR Odyssey imager. Bands were quantified using Image Studio Lite (LI-COR Biosciences) or the ImageJ program.
To visualize the degradation of cyclin K, total cell lysates were subjected to SDS-PAGE and western blotting.

Cdk12/CycK and DDB1ΔB [2] = molecular target: T1, Cdk12/CycK and DDB1ΔB; experiment: Analytical size-exclusion chromatography of DDB1ΔB and Cdk12/CycK; assay type: binding; conditions: 20 μM proteins, 60 μM compound, vs DMSO and THZ531
Procedure: Analytical size-exclusion chromatography was employed to investigate compound-induced protein–protein interactions between the heterodimeric Cdk12 (714–1063)/CycK (1–267) complex and the RING E3 ligase-associated adaptor protein DDB1ΔB. The analysis was conducted on an Agilent 1260 Infinity II HPLC system (Agilent Technologies), coupled with a Superdex 200 Increase 3.2/300 column (Cytiva), pre-equilibrated in Cdk12 SEC buffer (20 mM Hepes pH 7.8, 400 mM NaCl, 1 mM TCEP) supplemented with 1 g L^−1 carboxymethyl-dextran. Purified proteins, combined in equimolar ratios (20 μM Cdk12/CycK and DDB1ΔB, respectively) were supplemented with 3-fold molar excess of small molecular compounds. The resulting protein mixtures were diluted to a final volume of 25 μL using the kinases SEC-buffer ensuring a final DMSO concentration of 2%, followed by an incubation period of 10 min. Upon injection into the analytical system, the chromatography was conducted at a controlled flow rate of 0.05 mL min^−1, with protein absorbance monitored at 280 nm wavelength. Peak fractions were collected drop by drop and subsequently subjected to analysis via dynamic light scattering (DLS) to assess their size distribution, along with SDS-PAGE analysis to determine the composition of the protein complex.

T1 sequence (Q9NYV4 714-1063, stated change not applied): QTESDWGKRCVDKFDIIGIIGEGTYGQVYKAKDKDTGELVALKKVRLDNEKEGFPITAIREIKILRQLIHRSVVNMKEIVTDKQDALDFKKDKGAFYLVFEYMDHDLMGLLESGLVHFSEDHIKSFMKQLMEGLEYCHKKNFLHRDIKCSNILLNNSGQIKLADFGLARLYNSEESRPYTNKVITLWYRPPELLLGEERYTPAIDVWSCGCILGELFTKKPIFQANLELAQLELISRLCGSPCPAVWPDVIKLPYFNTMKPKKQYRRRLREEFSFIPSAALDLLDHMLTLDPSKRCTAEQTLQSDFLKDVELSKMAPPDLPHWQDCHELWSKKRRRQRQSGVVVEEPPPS
T1 sequence (O75909 1-267 partner limits assumed): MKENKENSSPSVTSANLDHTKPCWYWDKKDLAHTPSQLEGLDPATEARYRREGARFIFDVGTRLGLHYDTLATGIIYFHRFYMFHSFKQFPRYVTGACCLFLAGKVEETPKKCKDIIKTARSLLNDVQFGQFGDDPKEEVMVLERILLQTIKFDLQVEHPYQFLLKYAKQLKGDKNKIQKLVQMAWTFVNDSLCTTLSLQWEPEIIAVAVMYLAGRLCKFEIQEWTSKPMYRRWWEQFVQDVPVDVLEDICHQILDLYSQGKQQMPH
T1 sequence (Q16531 with tags, fused parts or gaps DEL396-705): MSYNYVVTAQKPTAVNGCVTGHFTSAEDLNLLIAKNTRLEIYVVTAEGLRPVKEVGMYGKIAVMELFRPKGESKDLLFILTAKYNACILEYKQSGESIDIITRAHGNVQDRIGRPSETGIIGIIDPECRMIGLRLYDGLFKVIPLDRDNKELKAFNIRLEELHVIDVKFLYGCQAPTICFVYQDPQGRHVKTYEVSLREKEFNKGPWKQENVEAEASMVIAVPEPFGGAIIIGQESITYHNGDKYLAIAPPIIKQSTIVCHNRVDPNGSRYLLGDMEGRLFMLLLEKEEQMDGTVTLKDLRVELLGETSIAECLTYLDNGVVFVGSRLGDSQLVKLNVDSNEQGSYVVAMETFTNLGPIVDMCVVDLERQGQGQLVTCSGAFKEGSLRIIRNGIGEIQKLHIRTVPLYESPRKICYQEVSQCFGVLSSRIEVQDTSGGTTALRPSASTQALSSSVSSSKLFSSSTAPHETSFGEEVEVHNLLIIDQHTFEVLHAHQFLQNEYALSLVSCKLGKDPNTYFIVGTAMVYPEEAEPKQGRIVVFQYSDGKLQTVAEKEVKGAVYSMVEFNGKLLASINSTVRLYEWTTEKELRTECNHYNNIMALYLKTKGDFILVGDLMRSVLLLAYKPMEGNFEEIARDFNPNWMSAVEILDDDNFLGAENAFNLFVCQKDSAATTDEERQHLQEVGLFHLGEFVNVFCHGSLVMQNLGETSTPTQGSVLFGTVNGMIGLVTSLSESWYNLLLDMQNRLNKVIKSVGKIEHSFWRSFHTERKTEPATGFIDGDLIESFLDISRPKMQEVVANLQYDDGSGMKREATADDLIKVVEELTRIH

hydrodynamic radius (DLS) (Cdk12/CycK and DDB1ΔB [1]): significantly increased
retention time in analytical SEC (ternary complex formation) (Cdk12/CycK and DDB1ΔB [2]): reduced retention times
SMILES: Cn1cc(-n2cnc3c(NCc4nc5cc(Cl)c(Cl)cc5[nH]4)nc(N4CCOCC4)nc32)cn1 [SR-4835]
cyclin K degradation (immunoblot) (cyclin K): rapidly degrades cyclin K
